Test results published in ChEMBL document CHEMBL1201862, “PubChem BioAssay data set” (2004).
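How tested: cells in 96-well plates exposed to compound for 48 hours at five concentrations. Abbreviation: GI50, concentration required for 50% inhibition of growth.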 Active and inactive are the calls of the source. No stated cut-off is given here; in the data, active = GI50 up to about 1.1 µM and inactive = higher. *1 amine or outer side, *2 acyl side, *3 side chain or, on linkers, in order; H or OH if unused. Where a SMILES comes first, the peptide text is derived from it. Bridges are numbered along the chain shown (N, C = ends). [ ]: non-standard residue; d: D form. X36 = CC[C@H](C)[C@@H](N[*:1])[C@@H](O)CC(=O)O[C@H](C(=O)[C@H](C)C(=O)[*:2])C(C)C; NMeY = CN[C@@H](Cc1ccc(O)cc1)C(=O)O

What was measured:
Test in all cases: NCI-60 cell line screen, 48 h
HT-29 = tested on: HT-29
Malme-3M = tested on: Malme-3M
NCI-H460 = tested on: NCI-H460
K562 = tested on: K562
786-0 = tested on: 786-0
ACHN = tested on: ACHN
UO-31 = tested on: UO-31
OVCAR-5 = tested on: OVCAR-5
NCI-H226 = tested on: NCI-H226
U-251 = tested on: U-251
HCT-15 = tested on: HCT-15
SN12C = tested on: SN12C
SK-OV-3 = tested on: SK-OV-3
SNB-75 = tested on: SNB-75
TK-10 = tested on: TK-10
COLO 205 = tested on: COLO 205
HOP-92 = tested on: HOP-92

Measured: GI50

CC[C@H](C)[C@H]1NC(=O)[C@@H](N)[C@@H](C)OC(=O)[C@H](Cc2ccc(OC)cc2)N(C)C(=O)[C@@H]2CCCN2C(=O)[C@H](CC(C)C)NC(=O)[C@@H](C)C(=O)[C@H](C(C)C)OC(=O)C[C@@H]1O (H-T[X36]LP[NMeY](Me); ester 1-C)
36.7 µM: HCT-15
inactive: HT-29 3.67 µM | Malme-3M 31.7 µM | NCI-H460 30.3 µM | K562 18.4 µM | 786-0 93.8 µM | ACHN 29.1 µM | UO-31 6.62 µM | OVCAR-5 31.5 µM | NCI-H226 37.2 µM | U-251 29.5 µM | SN12C 29.6 µM | SK-OV-3 35.6 µM | SNB-75 13.2 µM | TK-10 36.7 µM

Cc1ccc(C[P+]2(c3ccccc3)CCCCC2)cc1.[O-][Cl+3]([O-])([O-])[O-]
inactive: HT-29 21.1 µM | Malme-3M 25.5 µM | NCI-H460 37.6 µM | K562 34.8 µM | 786-0 47.4 µM | COLO 205 14 µM | ACHN 81.7 µM | UO-31 > 100 µM | OVCAR-5 55.2 µM | NCI-H226 48.1 µM | U-251 12.5 µM | SN12C 37.6 µM | SK-OV-3 60.8 µM | SNB-75 24.4 µM | TK-10 51.2 µM
51.6 µM: HCT-15

NC(=O)C1C(=O)Oc2cccnc21 (stereo not drawn)
> 100 µM: HCT-15
inactive: HT-29 > 100 µM | Malme-3M > 100 µM | NCI-H460 86.7 µM | K562 > 100 µM | 786-0 > 100 µM | COLO 205 > 100 µM | ACHN > 100 µM | UO-31 99.8 µM | NCI-H226 96.2 µM | U-251 > 100 µM | SN12C > 100 µM | SK-OV-3 > 100 µM | SNB-75 17.8 µM | TK-10 > 100 µM

CSC(=S)c1ccc(C(=S)SC)cc1
inactive: HT-29 > 100 µM | Malme-3M > 100 µM | NCI-H460 > 100 µM | K562 > 100 µM | 786-0 > 100 µM | COLO 205 > 100 µM | UO-31 > 100 µM | OVCAR-5 > 100 µM | NCI-H226 > 100 µM | U-251 > 100 µM | SN12C > 100 µM | HOP-92 > 100 µM | SK-OV-3 > 100 µM | SNB-75 > 100 µM | TK-10 > 100 µM
> 100 µM: HCT-15

[O-][S+]1c2ccccc2N=C(c2cccs2)CC1c1ccccc1O (stereo not drawn)
inactive: HT-29 > 100 µM | Malme-3M > 100 µM | NCI-H460 > 100 µM | K562 > 100 µM | 786-0 > 100 µM | COLO 205 > 100 µM | ACHN > 100 µM | UO-31 > 100 µM | OVCAR-5 > 100 µM | NCI-H226 > 100 µM | SN12C > 100 µM | SK-OV-3 > 100 µM | SNB-75 32.4 µM | TK-10 > 100 µM
> 100 µM: HCT-15

COC(=O)C(C(=O)C(=O)Nc1ccc([N+](=O)[O-])cc1[N+](=O)[O-])c1nc2ccc(Cl)cc2nc1O (stereo not drawn)
> 100 µM: HCT-15
inactive: HT-29 > 100 µM | Malme-3M > 100 µM | NCI-H460 > 100 µM | K562 > 100 µM | 786-0 > 100 µM | COLO 205 > 100 µM | ACHN 65 µM | UO-31 41.1 µM | OVCAR-5 > 100 µM | NCI-H226 79.1 µM | SN12C > 100 µM | HOP-92 > 100 µM | SK-OV-3 > 100 µM | SNB-75 68.2 µM | TK-10 > 100 µM

CC(=O)c1sc(-c2nc(C)c(C(=O)/C=C\c3ccc(/C=C\C(=O)c4sc(-c5nc(C)c(C(C)=O)s5)nc4C)cc3)s2)nc1C
> 100 µM: HCT-15
inactive: HT-29 > 100 µM | Malme-3M > 100 µM | NCI-H460 > 100 µM | K562 > 100 µM | 786-0 > 100 µM | COLO 205 > 100 µM | ACHN > 100 µM | UO-31 > 100 µM | OVCAR-5 > 100 µM | NCI-H226 > 100 µM | U-251 > 100 µM | SN12C > 100 µM | SK-OV-3 > 100 µM | TK-10 > 100 µM

Cc1ccc(-c2cc(=O)c3cc(C)c(C)c(C(=O)O)c3o2)cc1[N+](=O)[O-]
inactive: HT-29 > 100 µM | Malme-3M > 100 µM | NCI-H460 > 100 µM | K562 > 100 µM | 786-0 > 100 µM | COLO 205 > 100 µM | ACHN > 100 µM | UO-31 > 100 µM | OVCAR-5 > 100 µM | NCI-H226 > 100 µM | U-251 > 100 µM | SN12C > 100 µM | SK-OV-3 > 100 µM | SNB-75 > 100 µM | TK-10 > 100 µM
> 100 µM: HCT-15

O=C(O)OC12CCCCCC1C(=O)C1CCCCC12 (stereo not drawn)
inactive: HT-29 > 100 µM | Malme-3M > 100 µM | NCI-H460 77.4 µM | K562 42 µM | 786-0 > 100 µM | COLO 205 > 100 µM | ACHN > 100 µM | UO-31 > 100 µM | NCI-H226 > 100 µM | U-251 > 100 µM | SN12C > 100 µM | SK-OV-3 > 100 µM | SNB-75 20.1 µM | TK-10 > 100 µM
78.2 µM: HCT-15

O=C(NCC(O)CNC(=O)C(F)(F)F)C(F)(F)F
> 100 µM: HCT-15
inactive: HT-29 > 100 µM | Malme-3M > 100 µM | NCI-H460 > 100 µM | K562 > 100 µM | 786-0 > 100 µM | COLO 205 > 100 µM | UO-31 > 100 µM | OVCAR-5 > 100 µM | NCI-H226 > 100 µM | U-251 > 100 µM | SN12C > 100 µM | HOP-92 > 100 µM | SK-OV-3 > 100 µM | SNB-75 > 100 µM | TK-10 > 100 µM

Cc1ccc(N2C(=O)CS/C2=C(\C#N)c2nc3ccccc3[nH]2)cc1
> 100 µM: HCT-15
inactive: Malme-3M > 100 µM | NCI-H460 > 100 µM | K562 > 100 µM | 786-0 > 100 µM | COLO 205 > 100 µM | ACHN > 100 µM | UO-31 > 100 µM | OVCAR-5 > 100 µM | NCI-H226 > 100 µM | U-251 > 100 µM | SN12C > 100 µM | HOP-92 > 100 µM | SNB-75 > 100 µM | TK-10 > 100 µM

O=C(/N=C1\SCCN1C(=O)C(C(F)(F)F)C(F)(F)F)C(C(F)(F)F)C(F)(F)F
> 100 µM: HCT-15
inactive: HT-29 > 100 µM | Malme-3M > 100 µM | NCI-H460 > 100 µM | K562 > 100 µM | 786-0 > 100 µM | COLO 205 > 100 µM | ACHN > 100 µM | UO-31 > 100 µM | OVCAR-5 > 100 µM | NCI-H226 > 100 µM | U-251 > 100 µM | HOP-92 > 100 µM | SK-OV-3 > 100 µM | TK-10 > 100 µM

Cc1nc2ccc(N)cc2nc1O
inactive: Malme-3M > 100 µM | NCI-H460 > 100 µM | K562 > 100 µM | 786-0 > 100 µM | COLO 205 > 100 µM | ACHN > 100 µM | UO-31 > 100 µM | OVCAR-5 > 100 µM | U-251 > 100 µM | HOP-92 5.89 µM | SK-OV-3 > 100 µM | TK-10 > 100 µM
> 100 µM: HCT-15
